US6528528B2 (Warner-Lambert Company, priority 1997, dated 2003)
Read-outs that look alike come from different tables or passages of the source.

Legend:
[1] = molecular target: T1, rabbit reticulocyte 15-LO (Oryctolagus cuniculus, UniProt P12530); assay: Rabbit Reticulocyte 15-LO Assay (h15LO); type: biochemical; conditions: for IC50: 2U rabbit reticulocyte 15-LO, 174 μM linoleic acid, 15 minutes at 4° C.; for h15LO, value given as bare %: concentration not given
T1 construct: Fifteen-lipoxygenase was obtained from phenylhydrazine-treated rabbits and purified per the method of Rapoport; from tissue; host or cells: reticulocytes of phenylhydrazine-treated rabbits
T1 sequence (P12530 1-663): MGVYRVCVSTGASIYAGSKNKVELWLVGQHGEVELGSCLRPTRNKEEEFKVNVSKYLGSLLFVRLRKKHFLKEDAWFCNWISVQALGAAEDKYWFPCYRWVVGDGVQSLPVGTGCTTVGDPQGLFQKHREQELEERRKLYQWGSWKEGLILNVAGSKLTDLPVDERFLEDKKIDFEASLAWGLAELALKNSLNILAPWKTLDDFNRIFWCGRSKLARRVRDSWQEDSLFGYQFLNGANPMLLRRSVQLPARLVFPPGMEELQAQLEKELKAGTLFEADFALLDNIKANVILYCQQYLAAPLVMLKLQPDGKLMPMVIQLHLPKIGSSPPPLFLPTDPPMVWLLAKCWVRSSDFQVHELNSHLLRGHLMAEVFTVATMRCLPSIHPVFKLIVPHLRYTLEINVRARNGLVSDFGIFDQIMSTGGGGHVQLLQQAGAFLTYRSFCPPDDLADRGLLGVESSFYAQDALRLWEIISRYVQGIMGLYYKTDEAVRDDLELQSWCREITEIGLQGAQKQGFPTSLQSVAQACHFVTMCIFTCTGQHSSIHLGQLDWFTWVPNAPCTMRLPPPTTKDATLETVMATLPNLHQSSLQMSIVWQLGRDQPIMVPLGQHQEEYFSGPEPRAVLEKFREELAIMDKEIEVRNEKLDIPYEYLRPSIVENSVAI
Procedure, shortened: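 Purified rabbit reticulocyte 15-LO (2U) incubated with inhibitor and 174 μM linoleic acid in PBS with 0.2% Na cholate for 15 minutes at 4° C. 13-HPODE quantified by peak area against 13-HODE standard curve; % inhibition relative to uninhibited reaction.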

[2] = Table 1, read-out: h15LO % Inhibition at 10 μM

Row | SMILES | melting point | IC50 ([1]; Table 2) | also measured
1 | COc1ccc(C(=O)Nc2ccccc2)cc1Nc1cc(C)cc(C)c1 [Example 36, 3-(3,5-Dimethyl-phenylamino)-4-methoxy-N-phenyl-benzamide] | 198 to 199 °C | 11 nM | 
2 | COc1ccc(NC(=O)c2ccc(Cl)c(Cl)c2)cc1N [Example 23, 3,4-Dichloro-N-(3-amino-4-methoxyphenyl)-benzamide] | 215 to 218 °C |  | IC50 ([1]; Table 1): 26 nM
3 | COc1ccc(C(=O)Nc2ccccc2)cc1NS(=O)(=O)c1cc(Cl)cc(Cl)c1 [Example 118, 3-(3,5-Dichloro-benzenesulfonylamino)-4-methoxy-N-phenyl-benzamide] | 222 to 228 °C | 49 nM | 
4 | COc1ccc(C(=O)Nc2ccc(F)cc2)cc1N [Example 8, 3-Amino-4-methoxy-N-(4-fluorophenyl)-benzamide] | 164 to 167 °C |  | IC50 ([1]; Table 1): 157 nM
5 | COc1ccc(C(=S)Nc2ccccc2)cc1NS(=O)(=O)c1cc(Cl)cc(Cl)c1 [Example 208, 3-(3,5-Dichloro-benzenesulfonylamino)-4-methoxy-N-phenyl-thiobenzamide] | 206 to 208 °C |  | h15LO, value given as bare % ([1]; Table 2): 98.52%
6 | COc1ccc(C(=O)Nc2ccc(F)cc2)cc1Nc1cc(C)cc(C)c1 [Example 46, 4-Methoxy-3-(3,5-dimethyl-phenylamino)-N-(4-fluorophenyl)-benzamide] | 199 to 200 °C | 20 nM | 
7 | O=C(Nc1ccc(F)c(NC(=S)Nc2cccc(C(F)(F)F)c2)c1)c1ccc(Cl)c(Cl)c1 [Example 114, 3,4-Dichloro-N-{4-fluoro-3-[3-(3-trifluoromethylphenyl)-thioureido]-phenyl}-benzamide] | 172 to 174 °C | 120 nM | 
8 | COc1ccc(C(=O)Nc2cccnc2)cc1N [Example 5, 3-Amino-4-methoxy-N-(3-pyridyl)-benzamide] | 193 to 196 °C |  | IC50 ([1]; Table 1): 38 nM
9 | COc1ccc(C(=O)Nc2ccccc2)cc1NC(=S)Nc1ccc(Cl)c([N+](=O)[O-])c1 [Example 77, 3-[3-(4-Chloro-3-nitrophenyl)-thioureido]-4-methoxy-N-phenyl-benzamide] | 174 to 175 °C | 11 nM | 
10 | COc1ccc(C(=O)Nc2ccccc2)cc1NS(=O)(=O)c1cccc(Cl)c1 [Example 123, 3-(3-Chloro-benzenesulfonylamino)-4-methoxy-N-phenyl-benzamide] | 197 to 199 °C | 31 nM | 
11 | COc1ccc(C(=O)Nc2ccccc2)cc1NS(=O)(=O)c1sc(NC(C)=O)nc1C [Example 131, 3-(2-Acetylamino-4-methylthiazole-5-sulfonylamino)-4-methoxy-N-phenyl-benzamide] | 260 to 261 °C | 609 nM | 
12 | COc1ccc(C(=O)Nc2ccccc2)cc1NC(=S)Nc1ccc(OC)c(OC)c1 [Example 72, 3-[3-(3,4-Dimethoxyphenyl)-thioureido]-4-methoxy-N-phenyl-benzamide] | 170 to 171 °C | 56 nM | 
13 | O=C(Nc1ccccc1)c1cccc(Nc2ccccc2)c1 [Example 25, 3-Phenylamino-N-phenyl-benzamide] | 134 to 135 °C | 6430 nM | 
14 | COc1ccc(C(=O)Nc2ccccc2)cc1NS(=O)(=O)c1ccc(C(F)(F)F)cc1 [Example 128, 3-(4-Trifluoromethyl-benzenesulfonylamino)-4-methoxy-N-phenyl-benzamide] | 197 to 198 °C | 54 nM | 
15 | COc1ccc(NC(=S)Nc2cc(C(=O)Nc3ccccc3)ccc2OC)cc1 [Example 83, 4-Methoxy-3-[3-(4-methoxy-phenyl)-thioureido]-N-phenyl-benzamide] | 168 to 169 °C | 81 nM | 
16 | Nc1cc(C(=O)Nc2ccccc2)ccc1F [Example 9, 3-Amino-4-fluoro-N-phenyl-benzamide] | 167 to 170 °C |  | inhibition at 10 µM [1, 2]: 38%
17 | COc1ccc(C(=O)Nc2ccc(F)cc2F)cc1N [Example 14, 3-Amino-4-methoxy-N-(2,4-difluorophenyl)-benzamide] | 166 to 168 °C |  | inhibition at 10 µM [1, 2]: 68%
18 | COc1ccc(C(=O)Nc2ccccc2)cc1NC(=O)C(O)c1ccccc1 (stereo not shown) [Example 257, 3-(2-Hydroxy-2-phenyl-acetylamino)-4-methoxy-N-phenyl-benzamide] | 173 to 175 °C |  | h15LO, value given as bare % ([1]; Table 2): 61%

Row | SMILES | melting point | IC50 ([1]; Table 2) | also measured
19 | CCCCS(=O)(=O)Nc1cc(C(=O)Nc2ccccc2)ccc1OC [Example 129, 3-(Butane-1-sulfonylamino)-4-methoxy-N-phenyl-benzamide] | 182 to 183 °C | 79 nM | 
20 | CCCCCCCCCCCCS(=O)(=O)Nc1cc(C(=O)Nc2ccc(Cl)c(Cl)c2)ccc1OC [Example 194, 3-(Dodecane-1-sulfonylamino)-4-methoxy-N-(3,4-dichloro-phenyl)-benzamide] | 151 to 152 °C |  | h15LO, value given as bare % ([1]; Table 2): 93.61%
21 | CCOc1ccc(C(=O)Nc2ccccc2)cc1Nc1cccc(C(F)(F)F)c1 [Example 42, 4-Ethoxy-3-(3-trifluoromethyl-phenylamino)-N-phenyl-benzamide] | 184 to 185 °C | 410 nM | 
22 | COc1ccc(C(=O)Nc2ccccc2)cc1NS(=O)(=O)c1ccc(Cl)c(Cl)c1 [Example 136, 3-(3,4-Dichloro-benzenesulfonylamino)-4-methoxy-N-phenyl-benzamide] | 191 to 193 °C | 48 nM | 
23 | COc1ccc(C(=O)Nc2ccccc2)cc1NS(=O)(=O)c1cccc(C)c1 [Example 138, 3-(Toluene-3-sulfonylamino)-4-methoxy-N-phenyl-benzamide] | 195 to 197 °C | 28 nM | 
24 | COc1ccc(C(=O)Nc2ccc(C)cc2)cc1NC(=S)Nc1cc(Cl)cc(Cl)c1 [Example 94, 3-[3-(3,5-Dichlorophenyl)-thioureido]-4-methoxy-N-p-tolyl-benzamide] | 178 to 180 °C | 42 nM | 
25 | COc1ccc(C(=O)Nc2ccccc2)cc1NC(=S)Nc1cccc(C(=O)O)c1 [Example 113, 3-[3-(2-Methoxy-5-phenylcarbamoyl-phenyl)-thioureido]-benzoic Acid] | 196 to 197 °C | 52 nM | 
26 | COc1ccc(C(=O)Nc2ccccc2)cc1NS(=O)(=O)c1ccccc1 [Example 120, 3-Benzenesulfonylamino-4-methoxy-N-phenyl-benzamide] | 190 to 194 °C | 40 nM | 
27 | COc1ccc(C(=O)Nc2cccc(Cl)c2)cc1NC(=S)Nc1ccc(F)cc1 [Example 108, N-(3-Chlorophenyl)-3-[3-(4-fluorophenyl)-thioureido]-4-methoxy-benzamide] | 184 to 185 °C | 34 nM | 
28 | COc1ccc(C(=O)Nc2cccc(Cl)c2)cc1N [Example 16, 3-Amino-4-methoxy-N-(3-chlorophenyl)-benzamide] | 144 to 146 °C |  | IC50 ([1]; Table 1): 79 nM
29 | COc1ccc(NC(=O)c2ccc(O)c(Nc3cc(Cl)cc(Cl)c3)c2)cc1 [Example 57, 3-(3,5-Dichloro-phenylamino)-4-hydroxy-N-(4-methoxyphenyl)-benzamide] | 186 to 187 °C | 165 nM | 
30 | COc1ccc(NC(=O)c2ccccc2)cc1NC(=S)Nc1cc(Cl)cc(Cl)c1 [Example 87, N-{^3-[^3-(3,5-Dichlorophenyl)-thioureido]-4-methoxy-phenyl}-benzamide] | 194 to 195 °C | 102 nM | 
31 | COc1ccc(C(=O)Nc2ccccc2)cc1NS(=O)(=O)c1ccc(C)cc1 [Example 124, 3-(4-Methyl-benzenesulfonylamino)-4-methoxy-N-phenyl-benzamide] | 200 to 202 °C | 48 nM | 
32 | COc1ccc(C(=O)Nc2ccccc2)cc1NC(=O)CC(=O)OCc1ccccc1 [Example 252, (2-Methoxy-5-phenylcarbamoyl-phenylcarbamoyl)-acetic acid phenylmethyl Ester] | 168 to 171 °C |  | h15LO, value given as bare % ([1]; Table 2): 43%
33 | COc1ccc(C(=O)Nc2ccccc2)cc1NCc1ccc(OC)c(OC)c1 [Example 52, 3-(3,4-Dimethoxy-benzylamino)-4-methoxy-N-phenyl-benzamide] | 187 to 188 °C |  | inhibition at 10 µM ([1]; 0.25 h, Table 2, read-out: h15LO % @ 10 μM): 62%
34 | COc1ccc(C(=O)Nc2ccc(F)cc2)cc1Nc1ccccc1 [Example 39, 3-Phenylamino-4-methoxy-N-(4-fluorophenyl)-benzamide] | 151 to 152 °C | 50 nM | 
35 | COC(=O)c1cccc(NC(=O)c2ccc(OC)c(N)c2)c1 [Example 149, 3-(3-Amino-4-methoxy-benzoylamino)-benzoic Acid Methyl Ester] | 160 to 162 °C | 330 nM | 
